Assay results: patent publication US20070014803A1, “METHODS AND COMPOSITIONS FOR DIAGNOSIS AND TREATMENT OF VIRAL AND BACTERIAL INFECTIONS” (Arbor Vita Corporation, priority 2005, published 2007)
Where no end group is shown, it is not given here.

Assays:
Experiment in all cases: MATRIX screen against PDZ library (modified G assay)
Assay type in all cases: binding
Settings in all cases: pre-incubation conditions
[1] = biological target: T1, Shank 2 (Homo sapiens, UniProt Q9UPX8)
T1 construct: made in house
Experimental: (§1) Matrix graphPeptides and proteins were tested in an array format constituting a near complete set (255) of all the different PDZ domains in the human genome. Each PDZ domain polypeptide was expressed as a recombinant GST-PDZ polypeptide in a commercial glutathione S-transferase tagged expression system. Specific binding of biotinylated-PL peptides to PDZ domain polypeptides was detected using streptavidin-HRP and TMB substrate. Similarly, specific binding of PL protein-MBP fusion proteins to PDZ domain polypeptides was visualized using biotinylated anti-MBP, streptavidin-HRP and TMB substrate. The relative strength of binding was analyzed and the strong and weak binders are shown for each PL. A PDZ protein that binds more strongly is preferable when used for capturing or identifying PL proteins.
(§2) Two different types of ELISA assays were used to test the HIV Peptides 1904 and 1905. The primary MATRIX screen against all PDZ proteins in the library was performed under pre-incubation conditions, which are a modification of the G assay. A pre-incubation assay incubates the peptide with the HRP-streptavidin before addition of the mixture to the PDZ-coated plate. The subsequent titrations of the peptide against the PDZs of interest were performed under normal ELISA G assay conditions. In normal conditions the peptide is incubated on the PDZ coated plate before the later addition of the HRP-streptavidin. The reagents and supplies for both assays are listed below, as well as the two different protocols.
(§3) The PRISM Matrix ELISA modified G Assay was also used for pre-incubation and for the MATRIX assay. The protocol was as follows.
(§4) 1. Coat plate with 100 μl of 5 μg/ml anti-GST, O/N @ 4° C.
(§5) 2. Dump contents out of plate and tap dry on paper towels
(§6) 3. Block with 200 μl Assay Buffer for 1 to 2 hrs at room temperature
(§7) 4. Prepare proteins in Assay Buffer
(§8) 5. Wash plate 3× with cold PBS*
(§9) 6. Add proteins at 50 μl per well, incubate 1 to 2 hrs at 4° C.
(§10) 7. Prepare peptides in Assay Buffer:
(§11) • Prepare peptides in half of volume need with double of desired concentration. • Dilute HRP (1:1000) in another half of volume (same volume with peptide) then mix with peptides. • Incubate the peptide-HRP mixtures for 20 minutes at RT 8. Wash plate 3× with cold PBS* 9. Add peptide-HRP mixtures at 50 μl per well (write time on plate) 10. Incubate at RT after last peptide has been added for exactly 30 minutes 11. Turn on plate reader and prepare files 12. Promptly wash plate 5× with room temperature PBS 13. Add 100 μl/well TMB substrate (write time on plate) 14. Incubate in dark at room temp for a maximum of 30 minutes 15. Stop reaction with 100 μl of 0.18M H2SO4, 30 min. after adding TMB 16. Take last reading at 450 nm soon after stopping reaction

[2] = biological target: T2, Shank 1 (Homo sapiens, UniProt Q9Y566)
T2 construct: made in house
Experimental: as §1, §2, §3, §4, §5, §6, §7, §8, §9, §10, §11

[3] = biological target: T3, Shank 3 (Homo sapiens, UniProt Q9BYB0)
T3 construct: made in house
Experimental: as §1, §2, §3, §4, §5, §6, §7, §8, §9, §10, §11

[4] = biological target: T4, EBP50 (Homo sapiens, UniProt O14745)
T4 construct: made in house
Experimental: as §1, §2, §3, §4, §5, §6, §7, §8, §9, §10, §11

[5] = biological target: T5, PICK1 F.L. (Homo sapiens, UniProt Q9NRD5)
T5 construct: PICK1 F.L; made in house
Experimental: as §1, §2, §3, §4, §5, §6, §7, §8, §9, §10, §11

[6] = biological target: T6, ZO-1 d4 (Homo sapiens, UniProt Q07157)
T6 construct: ZO-1 d4; made in house
Experimental: as §1, §2, §3, §4, §5, §6, §7, §8, §9, §10, §11

[7] = biological target: T7, PAR6 beta (Homo sapiens, UniProt Q9BYG5)
T7 construct: made in house
Experimental: as §1, §2, §3, §4, §5, §6, §7, §8, §9, §10, §11

[8] = biological target: T8, PAR3L d3 (Homo sapiens, UniProt Q8TEW8)
T8 construct: made in house
Experimental: as §1, §2, §3, §4, §5, §6, §7, §8, §9, §10, §11

[9] = biological target: T9, RIM2 (Homo sapiens, UniProt Q9UQ26)
T9 construct: made in house
Experimental: as §1, §2, §3, §4, §5, §6, §7, §8, §9, §10, §11

[10] = biological target: T10, SITAC-18 d2 (Homo sapiens, UniProt Q9H190)
T10 construct: made in house
Experimental: as §1, §2, §3, §4, §5, §6, §7, §8, §9, §10, §11

T9 sequence (Q9UQ26 632-757): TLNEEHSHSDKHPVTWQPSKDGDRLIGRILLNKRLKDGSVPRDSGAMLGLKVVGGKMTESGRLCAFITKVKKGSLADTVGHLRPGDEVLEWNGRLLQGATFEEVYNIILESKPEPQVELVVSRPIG
T7 sequence (Q9BYG5 with tags, fused parts or gaps): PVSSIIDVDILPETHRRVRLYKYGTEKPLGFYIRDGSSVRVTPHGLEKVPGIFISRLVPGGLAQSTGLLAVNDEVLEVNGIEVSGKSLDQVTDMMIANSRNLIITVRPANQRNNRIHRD
T1 sequence (Q9UPX8 with tags, fused parts or gaps): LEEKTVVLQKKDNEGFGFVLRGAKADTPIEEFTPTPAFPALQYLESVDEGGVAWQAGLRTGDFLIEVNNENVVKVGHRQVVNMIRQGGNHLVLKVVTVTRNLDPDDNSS
T4 sequence (O14745 whole entry): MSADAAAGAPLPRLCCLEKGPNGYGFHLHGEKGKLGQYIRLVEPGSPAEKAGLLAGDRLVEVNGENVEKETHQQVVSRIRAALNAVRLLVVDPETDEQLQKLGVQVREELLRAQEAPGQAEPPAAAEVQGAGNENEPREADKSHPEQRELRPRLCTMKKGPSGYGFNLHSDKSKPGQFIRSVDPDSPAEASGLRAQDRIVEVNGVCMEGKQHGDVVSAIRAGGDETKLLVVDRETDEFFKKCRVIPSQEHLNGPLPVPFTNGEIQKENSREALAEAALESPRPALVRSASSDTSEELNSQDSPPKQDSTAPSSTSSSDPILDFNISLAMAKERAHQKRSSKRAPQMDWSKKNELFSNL
T10 sequence (Q9H190 with tags, fused parts or gaps): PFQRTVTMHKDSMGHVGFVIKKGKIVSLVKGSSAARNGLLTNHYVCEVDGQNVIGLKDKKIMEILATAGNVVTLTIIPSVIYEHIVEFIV
T6 sequence (Q07157 178-269 limits assumed): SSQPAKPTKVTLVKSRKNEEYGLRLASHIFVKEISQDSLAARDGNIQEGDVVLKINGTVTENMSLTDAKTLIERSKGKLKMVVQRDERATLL
T5 sequence (Q9NRD5 whole entry): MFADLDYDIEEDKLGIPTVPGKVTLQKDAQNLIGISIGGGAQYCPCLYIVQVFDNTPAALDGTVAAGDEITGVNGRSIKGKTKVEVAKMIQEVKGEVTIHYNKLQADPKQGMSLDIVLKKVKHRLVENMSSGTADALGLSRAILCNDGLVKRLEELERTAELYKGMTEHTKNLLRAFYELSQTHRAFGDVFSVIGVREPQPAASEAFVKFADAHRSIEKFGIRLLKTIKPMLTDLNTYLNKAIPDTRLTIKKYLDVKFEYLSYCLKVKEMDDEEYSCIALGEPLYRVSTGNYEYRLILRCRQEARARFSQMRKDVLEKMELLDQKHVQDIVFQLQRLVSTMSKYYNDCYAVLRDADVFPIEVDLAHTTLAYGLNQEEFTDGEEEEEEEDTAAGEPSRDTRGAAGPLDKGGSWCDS
T2 sequence (Q9Y566 with tags, fused parts or gaps): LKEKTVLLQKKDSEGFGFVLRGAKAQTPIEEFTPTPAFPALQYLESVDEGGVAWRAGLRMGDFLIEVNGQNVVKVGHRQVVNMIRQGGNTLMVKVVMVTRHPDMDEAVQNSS
T8 sequence (Q8TEW8 with tags, fused parts or gaps): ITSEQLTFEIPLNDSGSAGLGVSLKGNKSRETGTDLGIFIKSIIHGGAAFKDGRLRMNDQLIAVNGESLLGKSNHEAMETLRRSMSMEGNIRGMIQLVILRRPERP
T3 sequence (Q9BYB0 638-747): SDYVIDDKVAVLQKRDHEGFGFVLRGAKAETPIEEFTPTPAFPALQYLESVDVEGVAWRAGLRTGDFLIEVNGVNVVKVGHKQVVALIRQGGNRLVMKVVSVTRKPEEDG

YGRKKRRQRRRRQGFERALL-OH [Peptide 1905]
STRONG: Intensity of Hit, PDZ Shank 2 [1] | Intensity of Hit, PDZ Shank 1 [2] | Intensity of Hit, PDZ Shank 3 [3] | Intensity of Hit, PDZ EBP50 [4] | Intensity of Hit, PDZ PICK1 F.L. [5]

YGRKKRRQRRRRQGLERILL-OH [Peptide 1904]
STRONG: Intensity of Hit, PDZ ZO-1 d4 [6] | Intensity of Hit, PDZ PAR6 beta [7] | Intensity of Hit, PDZ PAR3L d3 [8] | Intensity of Hit, PDZ RIM2 [9] | Intensity of Hit, PDZ SITAC-18 d2 [10]
